# Experimental data taken from patent US11109593B2, “Isoxazolin-5-one derivative and herbicide containing same as active ingredient” (HOKKO CHEMICAL INDUSTRY CO., LTD., priority 2017, dated 2021).
# Tested on: Echinochloa crus-galli
# Assay: Test Example 1: herbicidal effect test by treatment of rice paddy soil (immediately after seeding)
# Type: in vivo
# Conditions: 120 g/10a active ingredient, dry weight vs untreated area, 14 days after treatment
# Method in brief: (§1)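 Paddy soil in pots with compound fertilizer, puddled; 30 seeds per species sown at 0–1 cm, flooded ~3 cm, greenhouse. Water-diluted emulsions dropped onto water immediately after seeding at 120 g active ingredient per 10 ares, duplicate. Herbicidal rate (%) from plant dry weight versus untreated, 14 days after treatment.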
row,SMILES,Herbicidal rate (%) Echinochloa crus-galli [%]
1,CCC(C)n1oc(=O)c(Cc2ccccc2N(C(=O)Oc2ccccc2)S(=O)(=O)C(F)(F)F)c1C (stereo not drawn) [Compound 1-763],90
2,Cc1c(Cc2ccccc2N(C(=O)OCc2ccccc2)S(=O)(=O)C(F)(F)F)c(=O)on1C(C)c1ccccc1 (stereo not drawn) [Compound 1-796],90
3,COC(=O)N(c1ccccc1Cc1c(C)n(Cc2ccc(F)cc2)oc1=O)S(=O)(=O)C(F)(F)F [Compound 1-597],90

# Tested on: Scirpus juncoides
# Assay: as above
# Type: in vivo
# Conditions: 120 g/10a active ingredient, dry weight vs untreated area, 14 days after treatment
# Method in brief: as §1
row,SMILES,Herbicidal rate (%) Scirpus juncoides [%]
1,CCC(C)n1oc(=O)c(Cc2ccccc2N(C(=O)Oc2ccccc2)S(=O)(=O)C(F)(F)F)c1C (stereo not drawn) [Compound 1-763],90
2,Cc1c(Cc2ccccc2N(C(=O)OCc2ccccc2)S(=O)(=O)C(F)(F)F)c(=O)on1C(C)c1ccccc1 (stereo not drawn) [Compound 1-796],90
3,COC(=O)N(c1ccccc1Cc1c(C)n(Cc2ccc(F)cc2)oc1=O)S(=O)(=O)C(F)(F)F [Compound 1-597],90

# Tested on: broad leaf weeds (Lindernia pyxidaria and Monochoria vaginalis)
# Assay: as above
# Type: in vivo
# Conditions: Lindernia pyxidaria, 120 g/10a active ingredient, dry weight vs untreated area, 14 days after treatment
# Method in brief: as §1
row,SMILES,Herbicidal rate (%) Lindernia pyxidaria [%]
1,CCC(C)n1oc(=O)c(Cc2ccccc2N(C(=O)Oc2ccccc2)S(=O)(=O)C(F)(F)F)c1C (stereo not drawn) [Compound 1-763],90
2,Cc1c(Cc2ccccc2N(C(=O)OCc2ccccc2)S(=O)(=O)C(F)(F)F)c(=O)on1C(C)c1ccccc1 (stereo not drawn) [Compound 1-796],90
3,COC(=O)N(c1ccccc1Cc1c(C)n(Cc2ccc(F)cc2)oc1=O)S(=O)(=O)C(F)(F)F [Compound 1-597],90

# Same assay, conditions: Monochoria vaginalis, 120 g/10a active ingredient, dry weight vs untreated area, 14 days after treatment
row,SMILES,Herbicidal rate (%) Monochoria vaginalis [%]
1,CCC(C)n1oc(=O)c(Cc2ccccc2N(C(=O)Oc2ccccc2)S(=O)(=O)C(F)(F)F)c1C (stereo not drawn) [Compound 1-763],90
2,Cc1c(Cc2ccccc2N(C(=O)OCc2ccccc2)S(=O)(=O)C(F)(F)F)c(=O)on1C(C)c1ccccc1 (stereo not drawn) [Compound 1-796],90
3,COC(=O)N(c1ccccc1Cc1c(C)n(Cc2ccc(F)cc2)oc1=O)S(=O)(=O)C(F)(F)F [Compound 1-597],100

# Tested on: Echinochloa crus-galli
# Assay: Test Example 2: herbicidal effect test by treatment during growing period in paddy rice cultivation (seven days after seeding)
# Type: in vivo
# Conditions: 120 g/10a active ingredient, assessed 14 days after treatment, dry weight vs untreated area
# Method in brief: (§2)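 Seeds sown 0–1 cm deep in puddled, fertilised paddy soil with about 3 cm standing water in a glass greenhouse. Diluted emulsion dropped into the water seven days after seeding at 120 g active ingredient per 10 ares. Herbicidal rate (%) from mean dry weight vs untreated, duplicate, 14 days after treatment.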
row,SMILES,Herbicidal rate (%) Echinochloa crus-galli [%]
1,CCC(C)n1oc(=O)c(Cc2ccccc2N(C(=O)Oc2ccccc2)S(=O)(=O)C(F)(F)F)c1C (stereo not drawn) [Compound 1-763],90
2,Cc1c(Cc2ccccc2N(C(=O)OCc2ccccc2)S(=O)(=O)C(F)(F)F)c(=O)on1C(C)c1ccccc1 (stereo not drawn) [Compound 1-796],90
3,COC(=O)N(c1ccccc1Cc1c(C)n(Cc2ccc(F)cc2)oc1=O)S(=O)(=O)C(F)(F)F [Compound 1-597],90

# Tested on: Scirpus juncoides
# Assay: as above
# Type: in vivo
# Conditions: 120 g/10a active ingredient, assessed 14 days after treatment, dry weight vs untreated area
# Method in brief: as §2
row,SMILES,Herbicidal rate (%) Scirpus juncoides [%]
1,CCC(C)n1oc(=O)c(Cc2ccccc2N(C(=O)Oc2ccccc2)S(=O)(=O)C(F)(F)F)c1C (stereo not drawn) [Compound 1-763],90
2,Cc1c(Cc2ccccc2N(C(=O)OCc2ccccc2)S(=O)(=O)C(F)(F)F)c(=O)on1C(C)c1ccccc1 (stereo not drawn) [Compound 1-796],90
3,COC(=O)N(c1ccccc1Cc1c(C)n(Cc2ccc(F)cc2)oc1=O)S(=O)(=O)C(F)(F)F [Compound 1-597],90

# Tested on: broad leaf weeds (Lindernia pyxidaria and Monochoria vaginalis)
# Assay: as above
# Type: in vivo
# Conditions: Lindernia pyxidaria, 120 g/10a active ingredient, assessed 14 days after treatment, dry weight vs untreated area
# Method in brief: as §2
row,SMILES,Herbicidal rate (%) Lindernia pyxidaria [%]
1,CCC(C)n1oc(=O)c(Cc2ccccc2N(C(=O)Oc2ccccc2)S(=O)(=O)C(F)(F)F)c1C (stereo not drawn) [Compound 1-763],90
2,Cc1c(Cc2ccccc2N(C(=O)OCc2ccccc2)S(=O)(=O)C(F)(F)F)c(=O)on1C(C)c1ccccc1 (stereo not drawn) [Compound 1-796],90
3,COC(=O)N(c1ccccc1Cc1c(C)n(Cc2ccc(F)cc2)oc1=O)S(=O)(=O)C(F)(F)F [Compound 1-597],80

# Same assay, conditions: Monochoria vaginalis, 120 g/10a active ingredient, assessed 14 days after treatment, dry weight vs untreated area
row,SMILES,Herbicidal rate (%) Monochoria vaginalis [%]
1,CCC(C)n1oc(=O)c(Cc2ccccc2N(C(=O)Oc2ccccc2)S(=O)(=O)C(F)(F)F)c1C (stereo not drawn) [Compound 1-763],90
2,Cc1c(Cc2ccccc2N(C(=O)OCc2ccccc2)S(=O)(=O)C(F)(F)F)c(=O)on1C(C)c1ccccc1 (stereo not drawn) [Compound 1-796],90
3,COC(=O)N(c1ccccc1Cc1c(C)n(Cc2ccc(F)cc2)oc1=O)S(=O)(=O)C(F)(F)F [Compound 1-597],100

# Tested on: Amaranthus viridis
# Assay: Test Example 3: herbicidal effect test by treatment of dry field farming soil (one day after seeding)
# Type: in vivo
# Conditions: 120 g/10a active ingredient, evaluated 14 days after treatment
# Method in brief: (§3)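 Alluvial dry-field soil in pots, top 1 cm mixed with 20 seeds per weed species. One day after seeding, the water-diluted emulsion was sprayed onto the soil surface at 100 L per 10 ares (120 g active ingredient per 10 ares). Duplicate pots; herbicidal rate (%) from plant dry weight versus untreated, 14 days after treatment.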
row,SMILES,"herbicidal rate, Amaranthus viridis [%]"
1,CCC(C)n1oc(=O)c(Cc2ccccc2N(C(=O)Oc2ccccc2)S(=O)(=O)C(F)(F)F)c1C (stereo not drawn) [Compound 1-763],90
2,Cc1c(Cc2ccccc2N(C(=O)OCc2ccccc2)S(=O)(=O)C(F)(F)F)c(=O)on1C(C)c1ccccc1 (stereo not drawn) [Compound 1-796],90
3,COC(=O)N(c1ccccc1Cc1c(C)n(Cc2ccc(F)cc2)oc1=O)S(=O)(=O)C(F)(F)F [Compound 1-597],0

# Tested on: Chenopodium album
# Assay: as above
# Type: in vivo
# Conditions: 120 g/10a active ingredient, evaluated 14 days after treatment
# Method in brief: as §3
row,SMILES,"herbicidal rate, Chenopodium album [%]"
1,CCC(C)n1oc(=O)c(Cc2ccccc2N(C(=O)Oc2ccccc2)S(=O)(=O)C(F)(F)F)c1C (stereo not drawn) [Compound 1-763],90
2,Cc1c(Cc2ccccc2N(C(=O)OCc2ccccc2)S(=O)(=O)C(F)(F)F)c(=O)on1C(C)c1ccccc1 (stereo not drawn) [Compound 1-796],90
3,COC(=O)N(c1ccccc1Cc1c(C)n(Cc2ccc(F)cc2)oc1=O)S(=O)(=O)C(F)(F)F [Compound 1-597],0

# Tested on: Echinochloa crus-galli
# Assay: as above
# Type: in vivo
# Conditions: 120 g/10a active ingredient, evaluated 14 days after treatment
# Method in brief: as §3
row,SMILES,"herbicidal rate, Echinochloa crus-galli [%]"
1,CCC(C)n1oc(=O)c(Cc2ccccc2N(C(=O)Oc2ccccc2)S(=O)(=O)C(F)(F)F)c1C (stereo not drawn) [Compound 1-763],90
2,Cc1c(Cc2ccccc2N(C(=O)OCc2ccccc2)S(=O)(=O)C(F)(F)F)c(=O)on1C(C)c1ccccc1 (stereo not drawn) [Compound 1-796],90
3,COC(=O)N(c1ccccc1Cc1c(C)n(Cc2ccc(F)cc2)oc1=O)S(=O)(=O)C(F)(F)F [Compound 1-597],90

# Tested on: southern crabgrass
# Assay: as above
# Type: in vivo
# Conditions: 120 g/10a active ingredient, evaluated 14 days after treatment
# Method in brief: as §3
row,SMILES,"herbicidal rate, southern crabgrass [%]"
1,CCC(C)n1oc(=O)c(Cc2ccccc2N(C(=O)Oc2ccccc2)S(=O)(=O)C(F)(F)F)c1C (stereo not drawn) [Compound 1-763],90
2,Cc1c(Cc2ccccc2N(C(=O)OCc2ccccc2)S(=O)(=O)C(F)(F)F)c(=O)on1C(C)c1ccccc1 (stereo not drawn) [Compound 1-796],90
3,COC(=O)N(c1ccccc1Cc1c(C)n(Cc2ccc(F)cc2)oc1=O)S(=O)(=O)C(F)(F)F [Compound 1-597],90

# Tested on: Amaranthus viridis
# Assay: Test Example 4: herbicidal effect test by treatment of leave and stem in dry field farming (seven days after seeding)
# Type: in vivo
# Conditions: 120 g/10a active ingredient; emulsion sprayed seven days after seeding; evaluated 14 days after treatment
# Method in brief: (§4)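 Weeds were seeded at 20 seeds per species into the top 1 cm of alluvial upland soil in pots, then sprayed 7 days after seeding with water-diluted emulsifiable concentrate at 100 L/10 a, giving 120 g active ingredient/10 a. Duplicate pots; herbicidal rate (%) was 14 days post-treatment, from dry weight versus untreated.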
row,SMILES,"herbicidal effect (herbicidal rate), Amaranthus viridis [%]"
1,CCC(C)n1oc(=O)c(Cc2ccccc2N(C(=O)Oc2ccccc2)S(=O)(=O)C(F)(F)F)c1C (stereo not drawn) [Compound 1-763],40
2,Cc1c(Cc2ccccc2N(C(=O)OCc2ccccc2)S(=O)(=O)C(F)(F)F)c(=O)on1C(C)c1ccccc1 (stereo not drawn) [Compound 1-796],40
3,COC(=O)N(c1ccccc1Cc1c(C)n(Cc2ccc(F)cc2)oc1=O)S(=O)(=O)C(F)(F)F [Compound 1-597],40

# Tested on: Chenopodium album
# Assay: as above
# Type: in vivo
# Conditions: 120 g/10a active ingredient; emulsion sprayed seven days after seeding; evaluated 14 days after treatment
# Method in brief: as §4
row,SMILES,"herbicidal effect (herbicidal rate), Chenopodium album [%]"
1,CCC(C)n1oc(=O)c(Cc2ccccc2N(C(=O)Oc2ccccc2)S(=O)(=O)C(F)(F)F)c1C (stereo not drawn) [Compound 1-763],40
2,Cc1c(Cc2ccccc2N(C(=O)OCc2ccccc2)S(=O)(=O)C(F)(F)F)c(=O)on1C(C)c1ccccc1 (stereo not drawn) [Compound 1-796],40
3,COC(=O)N(c1ccccc1Cc1c(C)n(Cc2ccc(F)cc2)oc1=O)S(=O)(=O)C(F)(F)F [Compound 1-597],40

# Tested on: Echinochloa crus-galli
# Assay: as above
# Type: in vivo
# Conditions: 120 g/10a active ingredient; emulsion sprayed seven days after seeding; evaluated 14 days after treatment
# Method in brief: as §4
row,SMILES,"herbicidal effect (herbicidal rate), Echinochloa crus-galli [%]"
1,CCC(C)n1oc(=O)c(Cc2ccccc2N(C(=O)Oc2ccccc2)S(=O)(=O)C(F)(F)F)c1C (stereo not drawn) [Compound 1-763],90
2,Cc1c(Cc2ccccc2N(C(=O)OCc2ccccc2)S(=O)(=O)C(F)(F)F)c(=O)on1C(C)c1ccccc1 (stereo not drawn) [Compound 1-796],90
3,COC(=O)N(c1ccccc1Cc1c(C)n(Cc2ccc(F)cc2)oc1=O)S(=O)(=O)C(F)(F)F [Compound 1-597],40

# Tested on: southern crabgrass
# Assay: as above
# Type: in vivo
# Conditions: 120 g/10a active ingredient; emulsion sprayed seven days after seeding; evaluated 14 days after treatment
# Method in brief: as §4
row,SMILES,"herbicidal effect (herbicidal rate), southern crabgrass [%]"
1,CCC(C)n1oc(=O)c(Cc2ccccc2N(C(=O)Oc2ccccc2)S(=O)(=O)C(F)(F)F)c1C (stereo not drawn) [Compound 1-763],90
2,Cc1c(Cc2ccccc2N(C(=O)OCc2ccccc2)S(=O)(=O)C(F)(F)F)c(=O)on1C(C)c1ccccc1 (stereo not drawn) [Compound 1-796],90
3,COC(=O)N(c1ccccc1Cc1c(C)n(Cc2ccc(F)cc2)oc1=O)S(=O)(=O)C(F)(F)F [Compound 1-597],50
